Measured values published in paper PMC4693163, “Candida albicans Shed Msb2 and Host Mucins Affect the Candidacidal Activity of Salivary Hst 5” (Pathogens, 2015).

Assays:
Histatin 5 = target: T1, Histatin 5 (UniProt P15516)
T1 sequence (peptide): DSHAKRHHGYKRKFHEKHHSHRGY

Candida albicans = assay: Candidacidal assay (microdilution plate) of Hst 5 after pre-incubation with proteins; type: cell-based; conditions: 37 °C, 1 h
Method: (§1) Candidacidal assays—The susceptibility of C. albicans cells to Hst 5 was measured using microdilution plate assays in triplicate as previously described, with some modifications for experiments involving rSap6 and mucins. Briefly, Hst 5 was incubated with the required concentration of respective proteins for 1 h at 37 °C before performing the candidacidal assay. For heat inactivated control of rSaps, protein was heat inactivated at 120 °C for 10 min before using in the candidacidal assay.

porcine mucin = assay: Hst 5 degradation analysis with porcine mucin (10 KDa cut-off filtrate, LC/MS); type: in vitro ADME; conditions: 37 °C, 1 h
Method: (§2) We next investigated whether the effect of these proteins on Hst 5 activity is related to complexation and Hst 5 sequestration or as a result, instead, of degradation caused by potential contaminating proteases that may be present in these commercial proteins. For this, 40 μM Hst 5 was incubated for 1 h at 37 °C with either 50 or 500 μg/mL porcine mucin or 40 μM albumin, respectively, and spun through a Centricon® 10 KDa molecular weight cut-off column that would allow Hst 5 and smaller peptides to pass through followed by Liquid Chromatography/Mass Spectrometry analysis of the eluate.
(§3) Proteolytic stability—For Hst 5 degradation analysis, Hst 5 was incubated with the required concentration of respective proteins for 1 h at 37 °C; and the reaction mixture was spun through a Centricon® 10 KDa cut-off column (Millipore UFC501024, Amicon Ultra-0.5 centrifugal filter unit with Ultracel-10 membrane), diluted in water with 2%TFA (trifluoroacetic acid) to 40 ug/mL of peptide, and analyzed by Liquid Chromatography/Mass Spectrometry utilizing a C18 column and an API3000 triple quadrupole mass spectrometer (Applied Biosystems, Foster City, CA,USA). The mass spectrum of Hst 5 gave a distribution of charge states with the most abundant being the M + 4 at 760 Da.

rSap 6 = target: T2, rSap 6 (Candida albicans, UniProt Q5AC08); assay: Proteolytic stability of Hst 5 with rSap 6 (10 KDa cut-off filtrate, LC/MS); type: in vitro ADME; conditions: 2:1 Hst 5: Sap 6, 37 °C, 1 h, C18 column, peaks m/z 760, 608, 507
T2 construct: made in house
Method: To further address whether Sap 6 degrades Hst 5, we spun the 2:1 Hst 5: Sap 6 incubation mixture through a Centricon® 10 KDa molecular weight cut-off column that would allow Hst 5 and smaller peptides to pass through; and subjected the eluate to Liquid Chromatography/Mass Spectrometry. […] Analysis of these fragments to determine Sap6-specific cleavage sites within Hst 5 is ongoing.
as §3

albumin = target: T3, albumin (Bos taurus, UniProt P02769); assay: Hst 5 degradation analysis with albumin (10 KDa cut-off filtrate, LC/MS); type: in vitro ADME; conditions: 40 μM Hst 5 with 40 μM albumin, 37 °C, 1 h, C18 column
T3 construct: purchased Sigma Aldrich A2153
Method: as §2, §3

[1] = tested on: C. albicans Msb2 domain mutant cells; assay: Candidacidal assay on HA-tagged Msb2 domain mutant cells; type: cell-based, Candida albicans; conditions: Figure 6
From the text: C. albicans strains with HA-tagged Msb2 and its domain mutants were constructed previously. These mutants consisted of versions of Msb2 lacking each of the major functional domains: ED1/2Δ lacking residues 100–900 of the glycosylated extracellular region so that shed Msb2 is truncated with low glycosylation; ED4Δ cells lacking Msb2 residues 900–1250 within the cleavage domain of Msb2 resulting in constitutive shedding of Msb2 due to loss of cell tethering; and TM-CYTΔ cells lacking residues 1250–1409 that comprise the transmembrane and cytoplasmic signaling domain of Msb2 so that Msb2 is cleaved and shed in the absence of signaling. Briefly, Msb2 deletion derivative strains were constructed by a PCR-based approach using the URA-Blaster technique. PCR primers were designed to amplify the 3HA-URA3–3HA cassette in plasmid pCaMPY-3XHA [26], tailed with an additional 80 nucleotides of sequence flanking the open reading frame (ORF) of the region to be disrupted. PCR products were verified by gel electrophoresis. The purified PCR product (10 μg) was transformed into the Δmsb2/MSB2 strain with Frozen-EZ Yeast Transformation II Kit (Zymo Research, CA, USA). Uracil-deficient agar (YNB-URA) media was used for selection of URA positive colonies. PCR-based analysis of transformants was performed with primer pairs internal to the wild-type locus and the URA cassette. Homozygous transformants were reverted to the URA negative phenotype by selection on 5-fluororotic acid (5-FOA). Domain deletion knockouts were verified by immunoblot analysis.
as §1

T3 sequence (P02769 25-607): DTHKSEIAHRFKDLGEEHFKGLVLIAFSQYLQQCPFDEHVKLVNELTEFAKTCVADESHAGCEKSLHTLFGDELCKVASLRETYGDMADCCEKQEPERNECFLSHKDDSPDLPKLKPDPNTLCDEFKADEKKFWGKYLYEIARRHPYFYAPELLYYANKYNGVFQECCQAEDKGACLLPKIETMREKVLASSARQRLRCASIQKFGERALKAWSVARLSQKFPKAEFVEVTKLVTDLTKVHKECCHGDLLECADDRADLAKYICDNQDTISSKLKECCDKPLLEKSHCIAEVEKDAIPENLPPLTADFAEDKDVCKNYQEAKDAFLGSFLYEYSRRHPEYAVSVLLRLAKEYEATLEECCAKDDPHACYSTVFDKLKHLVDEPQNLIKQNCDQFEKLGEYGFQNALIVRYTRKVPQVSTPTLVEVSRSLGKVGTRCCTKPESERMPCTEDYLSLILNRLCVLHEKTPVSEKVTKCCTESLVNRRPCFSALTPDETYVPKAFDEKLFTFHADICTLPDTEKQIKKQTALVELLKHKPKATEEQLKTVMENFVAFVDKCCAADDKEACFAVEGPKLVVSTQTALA
T2 sequence (Q5AC08 77-418): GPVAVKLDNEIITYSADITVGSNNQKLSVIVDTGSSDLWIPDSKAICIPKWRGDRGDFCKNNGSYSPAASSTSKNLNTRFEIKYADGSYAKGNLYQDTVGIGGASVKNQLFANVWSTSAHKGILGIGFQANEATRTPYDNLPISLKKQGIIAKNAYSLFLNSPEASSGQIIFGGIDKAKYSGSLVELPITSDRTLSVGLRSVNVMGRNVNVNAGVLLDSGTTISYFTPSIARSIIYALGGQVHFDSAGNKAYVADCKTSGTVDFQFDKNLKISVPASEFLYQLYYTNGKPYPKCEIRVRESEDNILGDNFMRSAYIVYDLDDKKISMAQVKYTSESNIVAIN

Molecule: purified full-length shed domain of Msb2 (domain or fragment)
- candidacidal activity (percent killing of C. albicans) of 30 uM Hst 5 after 1 h at 37 C with equimolar sMsb2; 70% without added protein (Histatin 5): 38 % killing

Molecule: C[C@H](NC(=O)[C@H](Cc1cnc[nH]1)NC(=O)[C@H](CO)NC(=O)[C@@H](N)CC(=O)O)C(=O)N[C@@H](CCCCN)C(=O)N[C@@H](CCCNC(=N)N)C(=O)N[C@@H](Cc1cnc[nH]1)C(=O)N[C@@H](Cc1cnc[nH]1)C(=O)NCC(=O)N[C@@H](Cc1ccc(O)cc1)C(=O)N[C@@H](CCCCN)C(=O)N[C@@H](CCCNC(=N)N)C(=O)N[C@@H](CCCCN)C(=O)N[C@@H](Cc1ccccc1)C(=O)N[C@@H](Cc1cnc[nH]1)C(=O)N[C@@H](CCC(=O)O)C(=O)N[C@@H](CCCCN)C(=O)N[C@@H](Cc1cnc[nH]1)C(=O)N[C@@H](Cc1cnc[nH]1)C(=O)N[C@@H](CO)C(=O)N[C@@H](Cc1cnc[nH]1)C(=O)N[C@@H](CCCNC(=N)N)C(=O)NCC(=O)N[C@@H](Cc1ccc(O)cc1)C(=O)O [Hst 5, Histatin 5]
- effect on Hst 5 candidacidal activity (Candida albicans; Hst 5 30 μM pre-incubated with heat inactivated rSap 6 (120 °C, 10 min)): did not affect Hst 5 activity
- effect on Hst 5 candidacidal activity (Candida albicans; Hst 5 30 μM with porcine gut mucin 5 μg/mL): no effect on Hst 5 activity
- effect on Hst 5 candidacidal activity (Candida albicans; Hst 5 30 μM with porcine gut mucin 50 μg/mL): no effect on Hst 5 activity
- intact Hst 5 mass peaks after incubation (porcine mucin; 40 μM Hst 5 with 500 μg/mL porcine mucin, M + 4 (760) peak still observed at lower intensity): almost complete disappearance of m/z peaks at 507 and 608
- intact Hst 5 mass peaks after incubation (porcine mucin; 40 μM Hst 5 with 50 or 500 μg/mL porcine mucin, C18 column): large dose-dependent decrease in the intensity of all three m/z peaks
- intact Hst 5 mass peaks after incubation with protease (rSap 6): completely disappeared
- intact Hst 5 mass peaks after incubation (albumin): reduction in the peak intensity of all 3 m/z peaks for intact Hst 5 with no emergence of any significant lower m/z peaks
- Hst 5 killing compared with WT ([1]; ED1/2Δ cells (release truncated Msb2 shed domain), p > 0.05): killing similar to WT Msb2-HA cells
- Hst 5 killing compared with WT ([1]; ED4Δ cells (constitutively shed Msb2), p > 0.05): killing similar to WT Msb2-HA cells
- Hst 5 killing compared with WT ([1]; TM-CYTΔ cells (lack transmembrane and cytoplasmic domain of Msb2)): reduced killing
- Hst 5 killing ([1]; cells lacking Msb2 (msb2Δ, no shedding), compared to other sMsb2 defective strains): killing was not significantly reduced

Molecule: albumin (from UniProt P02769 25-607) (natural protein)
- candidacidal activity (percent killing of C. albicans) of 30 uM Hst 5 after 1 h at 37 C with equimolar albumin; 70% without added protein (Histatin 5): 50 % killing

B1: fetuin (natural protein)
chain: IPLDPVAGYKEPACDDPDTEQAALAAVDYINKHLPRGYKHTLNQIDSVKVWPRRPTGEVYDIEIDTLETTCHVLDPTPLANCSVRQQTQHAVEGDCDIHVLKQDGQFSVLFTKCDSSPDSAEDVRKLCPDCPLLAPLNDSRVVHAVEVALATFNAESNGSYLQLVEISRAQFVPLPVSVSVEFAVAATDCIAKEVVDPTKCNLLAEKQYGFCKGSVIQKALGGEDVRVTCTLFQTQPVIPQPQPDGAEAEAPSAVPDAAGPTPSAAGPPVASVVVGPSVVAVPLPLHRAHYDLRHTFSGVASVESSSGEAFHVGKTPIVGQPSIPGGPVRLCPGRIRYFKI
modifications: glycosylated
- candidacidal activity (percent killing of C. albicans) of 30 uM Hst 5 after 1 h at 37 C with equimolar fetuin; 70% without added protein (Histatin 5): 50 % killing
